Drawing on ChEMBL document CHEMBL1144455, “A small molecule-kinase interaction map for clinical kinase inhibitors” (Nat Biotechnol, 2005), this text covers Kd for three molecules.

Test [1] deals with Ephrin type-A receptor 5 (Homo sapiens, UniProt P54756).
The target of test [2] is Dual specificity protein kinase CLK1 (Homo sapiens, UniProt P49759).
The target in test [3] is Serine/threonine-protein kinase PAK 1 (Homo sapiens, UniProt Q13153).
For test [4], the target named is Mitogen-activated protein kinase kinase kinase kinase 5 (Homo sapiens, UniProt Q9Y4K4).
Test [5] concerns the target Mitogen-activated protein kinase 10 (Homo sapiens, UniProt P53779).
The target of test [6] is Protein-tyrosine kinase 6 (Homo sapiens, UniProt Q13882).
The target of test [7] is T1, Serine/threonine-protein kinase ULK3 (Mus musculus, UniProt Q3U3Q1).
T1 sequence (Q3U3Q1 whole entry): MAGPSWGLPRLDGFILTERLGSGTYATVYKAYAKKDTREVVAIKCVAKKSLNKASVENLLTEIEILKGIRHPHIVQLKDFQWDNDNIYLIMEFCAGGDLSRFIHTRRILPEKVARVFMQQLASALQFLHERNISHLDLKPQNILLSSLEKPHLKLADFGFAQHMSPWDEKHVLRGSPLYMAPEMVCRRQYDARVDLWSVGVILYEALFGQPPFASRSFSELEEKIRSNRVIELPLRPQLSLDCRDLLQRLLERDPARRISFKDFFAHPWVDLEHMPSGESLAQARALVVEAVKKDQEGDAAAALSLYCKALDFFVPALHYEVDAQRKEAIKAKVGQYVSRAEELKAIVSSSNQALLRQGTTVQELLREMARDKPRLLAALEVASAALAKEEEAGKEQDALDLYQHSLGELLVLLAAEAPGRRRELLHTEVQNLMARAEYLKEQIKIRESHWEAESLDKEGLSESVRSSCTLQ

For test [8], the target named is T2, Serine/threonine-protein kinase PLK4 (Homo sapiens, UniProt O00444).
T2 sequence (O00444 whole entry): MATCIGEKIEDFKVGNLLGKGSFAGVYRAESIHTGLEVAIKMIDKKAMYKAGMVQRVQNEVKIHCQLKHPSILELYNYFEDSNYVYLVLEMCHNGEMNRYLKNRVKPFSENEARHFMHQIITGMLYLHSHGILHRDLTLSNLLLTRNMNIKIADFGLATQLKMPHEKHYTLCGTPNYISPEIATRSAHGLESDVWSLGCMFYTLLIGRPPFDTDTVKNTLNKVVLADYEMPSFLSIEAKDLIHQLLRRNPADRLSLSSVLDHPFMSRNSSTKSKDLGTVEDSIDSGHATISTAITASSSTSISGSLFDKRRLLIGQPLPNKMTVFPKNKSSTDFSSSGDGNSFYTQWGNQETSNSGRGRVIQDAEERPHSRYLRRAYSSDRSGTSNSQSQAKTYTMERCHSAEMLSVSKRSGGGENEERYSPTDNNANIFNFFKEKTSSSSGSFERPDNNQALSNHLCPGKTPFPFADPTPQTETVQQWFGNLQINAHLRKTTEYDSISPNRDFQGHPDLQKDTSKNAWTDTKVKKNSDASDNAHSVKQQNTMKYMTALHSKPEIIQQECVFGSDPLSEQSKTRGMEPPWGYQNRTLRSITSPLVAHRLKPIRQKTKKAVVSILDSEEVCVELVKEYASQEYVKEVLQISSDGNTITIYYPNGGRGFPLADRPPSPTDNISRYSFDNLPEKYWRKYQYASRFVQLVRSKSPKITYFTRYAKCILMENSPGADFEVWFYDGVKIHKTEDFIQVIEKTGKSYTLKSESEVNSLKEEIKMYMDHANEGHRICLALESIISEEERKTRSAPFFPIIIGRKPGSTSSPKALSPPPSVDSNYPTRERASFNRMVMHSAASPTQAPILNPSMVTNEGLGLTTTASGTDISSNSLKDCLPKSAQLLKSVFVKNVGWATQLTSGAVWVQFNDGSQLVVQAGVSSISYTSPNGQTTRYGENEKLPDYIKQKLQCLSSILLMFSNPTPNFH

Test [9] addresses Calcium/calmodulin-dependent protein kinase kinase 2 (Homo sapiens, UniProt Q96RR4).
Test [10] addresses Calcium/calmodulin-dependent protein kinase type 1 (Homo sapiens, UniProt Q14012).
Test [11] deals with Cyclin-dependent kinase 2 (Homo sapiens, UniProt P24941).
Test [12] deals with BMP-2-inducible protein kinase (Homo sapiens, UniProt Q9NSY1).
Test [13] has as its target Death-associated protein kinase 2 (Homo sapiens, UniProt Q9UIK4).
Test [14] addresses T3, Serine/threonine-protein kinase 4 (Homo sapiens, UniProt Q13043).
T3 sequence (Q13043 whole entry): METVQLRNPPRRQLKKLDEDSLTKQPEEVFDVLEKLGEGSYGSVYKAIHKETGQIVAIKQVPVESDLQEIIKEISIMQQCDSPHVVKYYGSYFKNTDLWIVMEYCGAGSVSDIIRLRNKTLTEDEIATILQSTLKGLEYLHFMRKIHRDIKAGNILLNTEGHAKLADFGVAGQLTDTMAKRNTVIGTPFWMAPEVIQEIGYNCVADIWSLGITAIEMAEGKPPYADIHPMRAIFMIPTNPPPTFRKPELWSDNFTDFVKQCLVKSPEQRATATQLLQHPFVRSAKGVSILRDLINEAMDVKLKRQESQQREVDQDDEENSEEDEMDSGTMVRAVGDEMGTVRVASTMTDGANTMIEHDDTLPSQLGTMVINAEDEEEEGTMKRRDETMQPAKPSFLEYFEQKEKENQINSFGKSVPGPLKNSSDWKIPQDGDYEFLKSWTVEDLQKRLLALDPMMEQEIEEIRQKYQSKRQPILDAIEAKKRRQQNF

Test [15] addresses Casein kinase I isoform gamma-1 (Homo sapiens, UniProt Q9HCP0).

One may read the Kd as a measure of binding affinity in units of concentration.

SMILES strings stand for the structures.

Calcium/calmodulin-dependent protein kinase type 1, sequence (Q14012 whole entry): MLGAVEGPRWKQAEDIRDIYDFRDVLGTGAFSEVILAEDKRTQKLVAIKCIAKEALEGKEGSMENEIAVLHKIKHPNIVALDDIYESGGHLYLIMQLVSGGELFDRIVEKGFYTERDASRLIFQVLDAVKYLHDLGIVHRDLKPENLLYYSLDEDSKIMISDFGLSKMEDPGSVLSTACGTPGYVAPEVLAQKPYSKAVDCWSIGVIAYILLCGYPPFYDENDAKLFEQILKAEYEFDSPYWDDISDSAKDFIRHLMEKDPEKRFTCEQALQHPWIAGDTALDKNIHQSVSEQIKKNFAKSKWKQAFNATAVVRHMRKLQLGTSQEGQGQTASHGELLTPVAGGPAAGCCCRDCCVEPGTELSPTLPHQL
Death-associated protein kinase 2, sequence (Q9UIK4 whole entry): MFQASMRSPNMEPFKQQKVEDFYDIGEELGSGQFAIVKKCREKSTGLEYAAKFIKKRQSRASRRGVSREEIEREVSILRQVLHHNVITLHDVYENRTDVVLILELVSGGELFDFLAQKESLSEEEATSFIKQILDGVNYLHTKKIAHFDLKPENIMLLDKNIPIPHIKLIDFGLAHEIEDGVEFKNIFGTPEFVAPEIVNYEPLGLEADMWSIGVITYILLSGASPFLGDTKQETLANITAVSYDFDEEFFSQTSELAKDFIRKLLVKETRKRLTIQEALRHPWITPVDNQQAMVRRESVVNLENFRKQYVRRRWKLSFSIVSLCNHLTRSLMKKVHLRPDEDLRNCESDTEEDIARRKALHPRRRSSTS
Serine/threonine-protein kinase PAK 1, sequence (Q13153 whole entry): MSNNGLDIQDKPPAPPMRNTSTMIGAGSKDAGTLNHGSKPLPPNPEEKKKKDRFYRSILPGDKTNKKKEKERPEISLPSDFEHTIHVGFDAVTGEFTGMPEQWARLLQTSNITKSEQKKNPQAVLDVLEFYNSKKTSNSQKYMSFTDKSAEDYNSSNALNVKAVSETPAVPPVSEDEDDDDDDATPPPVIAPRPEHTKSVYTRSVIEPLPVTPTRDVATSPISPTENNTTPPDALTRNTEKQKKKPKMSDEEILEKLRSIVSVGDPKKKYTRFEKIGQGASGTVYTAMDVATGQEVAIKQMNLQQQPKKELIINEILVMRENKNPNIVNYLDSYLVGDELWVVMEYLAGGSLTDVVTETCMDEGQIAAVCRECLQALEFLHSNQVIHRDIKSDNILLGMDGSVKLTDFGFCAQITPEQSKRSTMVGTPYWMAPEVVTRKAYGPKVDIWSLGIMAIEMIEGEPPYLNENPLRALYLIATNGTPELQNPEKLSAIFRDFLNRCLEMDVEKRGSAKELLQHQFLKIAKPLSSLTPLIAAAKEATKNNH
Calcium/calmodulin-dependent protein kinase kinase 2, sequence (Q96RR4 whole entry): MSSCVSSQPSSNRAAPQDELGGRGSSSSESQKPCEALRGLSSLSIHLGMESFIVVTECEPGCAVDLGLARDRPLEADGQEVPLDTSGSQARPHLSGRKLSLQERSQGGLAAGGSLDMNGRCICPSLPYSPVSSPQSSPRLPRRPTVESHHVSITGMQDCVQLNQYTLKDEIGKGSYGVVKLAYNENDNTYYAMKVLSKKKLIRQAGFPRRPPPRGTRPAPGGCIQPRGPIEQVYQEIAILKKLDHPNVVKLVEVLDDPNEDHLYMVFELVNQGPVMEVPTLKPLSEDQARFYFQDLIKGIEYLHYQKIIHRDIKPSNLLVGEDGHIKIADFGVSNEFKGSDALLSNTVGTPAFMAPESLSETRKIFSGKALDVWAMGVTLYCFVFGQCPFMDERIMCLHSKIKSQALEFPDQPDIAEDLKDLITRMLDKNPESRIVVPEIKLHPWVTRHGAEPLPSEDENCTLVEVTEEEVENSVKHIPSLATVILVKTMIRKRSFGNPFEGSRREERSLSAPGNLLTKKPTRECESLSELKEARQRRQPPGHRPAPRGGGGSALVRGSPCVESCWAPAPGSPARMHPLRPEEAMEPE
Protein-tyrosine kinase 6, sequence (Q13882 whole entry): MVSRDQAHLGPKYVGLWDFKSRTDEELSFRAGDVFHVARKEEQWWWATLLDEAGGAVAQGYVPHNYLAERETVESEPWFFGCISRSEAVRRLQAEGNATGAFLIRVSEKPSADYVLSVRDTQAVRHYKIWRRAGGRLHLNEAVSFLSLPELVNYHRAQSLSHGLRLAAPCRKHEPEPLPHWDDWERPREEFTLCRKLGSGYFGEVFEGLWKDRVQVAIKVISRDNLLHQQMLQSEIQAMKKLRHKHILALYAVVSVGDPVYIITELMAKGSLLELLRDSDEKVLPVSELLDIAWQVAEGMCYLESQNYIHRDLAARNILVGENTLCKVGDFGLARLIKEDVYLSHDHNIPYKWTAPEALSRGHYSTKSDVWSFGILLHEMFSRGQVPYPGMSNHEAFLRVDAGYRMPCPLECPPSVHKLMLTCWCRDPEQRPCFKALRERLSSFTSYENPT
Casein kinase I isoform gamma-1, sequence (Q9HCP0 whole entry, canonical isoform): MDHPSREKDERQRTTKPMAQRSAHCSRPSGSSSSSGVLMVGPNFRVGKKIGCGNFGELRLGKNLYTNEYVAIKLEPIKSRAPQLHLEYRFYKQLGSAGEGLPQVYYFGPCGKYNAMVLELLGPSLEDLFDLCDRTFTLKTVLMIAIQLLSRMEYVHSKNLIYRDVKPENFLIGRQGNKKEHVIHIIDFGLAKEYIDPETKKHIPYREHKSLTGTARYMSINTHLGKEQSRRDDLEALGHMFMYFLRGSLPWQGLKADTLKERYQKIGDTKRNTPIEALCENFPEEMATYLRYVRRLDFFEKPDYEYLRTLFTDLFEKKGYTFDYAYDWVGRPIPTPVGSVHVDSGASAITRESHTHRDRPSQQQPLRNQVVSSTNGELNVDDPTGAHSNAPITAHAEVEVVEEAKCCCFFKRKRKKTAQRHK
Dual specificity protein kinase CLK1, sequence (P49759 whole entry): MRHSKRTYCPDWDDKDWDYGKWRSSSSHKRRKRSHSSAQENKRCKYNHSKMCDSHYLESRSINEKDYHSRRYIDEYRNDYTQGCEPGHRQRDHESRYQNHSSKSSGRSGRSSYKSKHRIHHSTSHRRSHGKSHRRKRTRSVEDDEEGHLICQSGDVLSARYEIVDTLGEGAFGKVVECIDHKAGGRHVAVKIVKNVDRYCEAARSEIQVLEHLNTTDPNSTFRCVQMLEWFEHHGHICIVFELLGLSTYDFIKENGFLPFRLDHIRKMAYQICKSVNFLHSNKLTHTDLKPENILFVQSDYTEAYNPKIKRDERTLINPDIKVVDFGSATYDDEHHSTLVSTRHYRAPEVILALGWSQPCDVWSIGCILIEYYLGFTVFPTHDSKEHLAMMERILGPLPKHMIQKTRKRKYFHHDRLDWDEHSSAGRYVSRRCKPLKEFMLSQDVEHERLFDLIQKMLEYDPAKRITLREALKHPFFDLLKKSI
Mitogen-activated protein kinase kinase kinase kinase 5, sequence (Q9Y4K4 whole entry): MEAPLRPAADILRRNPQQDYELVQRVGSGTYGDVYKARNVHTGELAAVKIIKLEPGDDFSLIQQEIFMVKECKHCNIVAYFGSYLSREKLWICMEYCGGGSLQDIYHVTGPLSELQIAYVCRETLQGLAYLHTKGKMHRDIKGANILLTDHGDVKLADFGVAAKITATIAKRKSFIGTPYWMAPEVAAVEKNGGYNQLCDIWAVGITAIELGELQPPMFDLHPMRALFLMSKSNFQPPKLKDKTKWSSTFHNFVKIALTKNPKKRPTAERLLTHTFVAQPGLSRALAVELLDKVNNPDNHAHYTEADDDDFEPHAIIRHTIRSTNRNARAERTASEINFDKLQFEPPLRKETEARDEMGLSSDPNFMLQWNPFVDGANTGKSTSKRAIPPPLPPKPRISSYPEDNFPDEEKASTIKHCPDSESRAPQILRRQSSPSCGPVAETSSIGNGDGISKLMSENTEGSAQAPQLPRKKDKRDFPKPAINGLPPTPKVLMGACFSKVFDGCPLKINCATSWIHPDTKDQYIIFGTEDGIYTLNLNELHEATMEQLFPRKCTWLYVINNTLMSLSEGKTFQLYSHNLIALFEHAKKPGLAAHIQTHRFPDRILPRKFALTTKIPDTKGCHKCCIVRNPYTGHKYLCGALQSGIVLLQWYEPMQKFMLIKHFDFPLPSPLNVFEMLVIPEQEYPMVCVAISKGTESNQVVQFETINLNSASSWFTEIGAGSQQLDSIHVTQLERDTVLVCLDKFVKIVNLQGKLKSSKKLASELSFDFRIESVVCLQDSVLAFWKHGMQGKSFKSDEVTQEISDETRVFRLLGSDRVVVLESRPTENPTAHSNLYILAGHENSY
Mitogen-activated protein kinase 10, sequence (P53779 whole entry): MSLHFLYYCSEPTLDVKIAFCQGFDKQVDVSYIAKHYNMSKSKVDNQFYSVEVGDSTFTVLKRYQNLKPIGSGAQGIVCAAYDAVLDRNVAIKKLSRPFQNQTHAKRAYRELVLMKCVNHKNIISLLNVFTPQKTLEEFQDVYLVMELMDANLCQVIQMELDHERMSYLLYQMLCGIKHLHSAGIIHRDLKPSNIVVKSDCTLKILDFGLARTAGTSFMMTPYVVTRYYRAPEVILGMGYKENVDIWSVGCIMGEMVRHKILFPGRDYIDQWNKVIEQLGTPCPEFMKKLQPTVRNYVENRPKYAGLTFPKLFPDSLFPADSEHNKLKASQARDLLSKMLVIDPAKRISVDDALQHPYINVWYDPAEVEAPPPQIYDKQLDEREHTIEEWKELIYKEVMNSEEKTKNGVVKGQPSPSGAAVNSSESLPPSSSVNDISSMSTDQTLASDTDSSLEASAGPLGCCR

In the case of `CCOc1cc2ncc(C#N)c(Nc3ccc(F)c(Cl)c3)c2cc1NC(=O)/C=C/CN(C)C` [PELITINIB], the equilibrium dissociation constant (Kd) worked out at 710 nM in test [1], 1000 nM in test [2], 2100 nM in test [3] and 3.7 nM in [4].

As to `Oc1ccc(-c2nc(-c3ccc(F)cc3)c(-c3ccncc3)[nH]2)cc1` [SB-202190], the equilibrium dissociation constant (Kd) in test [5] was found to be 51 nM; in test [6], 3000 nM.

As to `Oc1c2ccccc2c2c3c(cccc13)N=N2` [SP-600125], the Kd in test [7] is 680 nM; in test [8], 770 nM; in test [9] it was 7500 nM; in test [10], 4100 nM; in test [11], 3200 nM; in test [12] it was 25 nM. The Kd in test [13] was determined as 610 nM; in test [14], 2200 nM; in test [15], 3700 nM.
